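Cells were grown in 96-well plates and exposed to each compound for 48 hours at five concentrations; endpoints were interpolated linearly between bracketing concentrations, or set to the highest concentration if not reached. At the GI50, growth is halved.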 Calls of active or inactive are those of the source. Rule as the data show it: active = GI50 up to about 1.1 µM and inactive = higher. Where a SMILES comes first, the peptide text is derived from it. [ ]: non-standard residue; d: D form. The star is where a group is joined. Cbz = O=C(OCc1ccccc1)*; Aib = CC(C)(N)C(=O)O
Experiments:
Test in all cases: NCI-60 cell line screen, 48 h
OVCAR-4 = tested on: OVCAR-4
HOP-92 = tested on: HOP-92
IGROV-1 = tested on: IGROV-1
NCI-H460 = tested on: NCI-H460
DU-145 = tested on: DU-145
SNB-75 = tested on: SNB-75
SNB-19 = tested on: SNB-19
TK-10 = tested on: TK-10
COLO 205 = tested on: COLO 205
EKVX = tested on: EKVX
SK-OV-3 = tested on: SK-OV-3
UO-31 = tested on: UO-31
SW-620 = tested on: SW-620
PC-3 = tested on: PC-3
OVCAR-5 = tested on: OVCAR-5
ACHN = tested on: ACHN
NCI/ADR-RES = tested on: NCI/ADR-RES
SF-268 = tested on: SF-268
HOP-62 = tested on: HOP-62
U-251 = tested on: U-251

Measured: GI50

CCSc1nn(-c2c3ccccc3nc3ccccc23)c(=S)s1
inactive: OVCAR-4 > 100 µM | HOP-92 > 100 µM | IGROV-1 > 100 µM | NCI-H460 > 100 µM | DU-145 > 100 µM | SNB-75 61.9 µM | SNB-19 > 100 µM | TK-10 > 100 µM | COLO 205 > 100 µM | EKVX > 100 µM | SK-OV-3 > 100 µM | UO-31 > 100 µM | SW-620 > 100 µM | PC-3 > 100 µM | OVCAR-5 > 100 µM | ACHN > 100 µM | NCI/ADR-RES > 100 µM | SF-268 > 100 µM | HOP-62 > 100 µM | U-251 > 100 µM

CC(C)(NC(=O)C(C)(C)NC(=O)OCc1ccccc1)C(=O)O (Cbz-[Aib]-[Aib]-OH)
inactive: OVCAR-4 > 100 µM | HOP-92 > 100 µM | IGROV-1 > 100 µM | NCI-H460 > 100 µM | DU-145 > 100 µM | SNB-75 > 100 µM | SNB-19 > 100 µM | TK-10 > 100 µM | COLO 205 > 10 µM | EKVX > 100 µM | SK-OV-3 > 100 µM | UO-31 > 100 µM | SW-620 > 100 µM | PC-3 > 100 µM | OVCAR-5 > 100 µM | ACHN > 100 µM | NCI/ADR-RES > 100 µM | SF-268 > 100 µM | HOP-62 > 100 µM | U-251 > 100 µM
